pKi: −log10 of the molar value. Where two headings read alike, the source gives them in different places.
What was measured:
[1] = target: T1, α1d-AR (Homo sapiens, UniProt P25100); test: α1-Adrenergic receptor radio-ligand binding assay, α1d subtype
T1 construct: expressed in transfected cells; host or cells: COS-7 cells (membranes)
T1 sequence (P25100 1-572): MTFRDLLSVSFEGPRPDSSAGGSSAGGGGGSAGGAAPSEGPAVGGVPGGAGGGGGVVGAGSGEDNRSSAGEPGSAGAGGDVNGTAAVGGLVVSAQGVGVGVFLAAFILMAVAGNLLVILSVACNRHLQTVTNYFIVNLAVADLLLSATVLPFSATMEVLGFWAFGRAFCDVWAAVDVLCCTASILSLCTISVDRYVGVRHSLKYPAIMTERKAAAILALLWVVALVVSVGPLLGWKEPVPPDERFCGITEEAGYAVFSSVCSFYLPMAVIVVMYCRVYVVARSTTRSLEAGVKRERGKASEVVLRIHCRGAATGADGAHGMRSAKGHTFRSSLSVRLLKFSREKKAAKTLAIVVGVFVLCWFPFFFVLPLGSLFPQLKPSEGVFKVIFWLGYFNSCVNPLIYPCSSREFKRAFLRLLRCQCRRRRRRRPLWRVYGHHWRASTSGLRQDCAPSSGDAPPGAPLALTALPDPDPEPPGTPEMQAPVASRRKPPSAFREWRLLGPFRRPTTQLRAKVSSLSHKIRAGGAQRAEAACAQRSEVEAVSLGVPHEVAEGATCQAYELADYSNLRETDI
Method: (§1) Membranes were prepared from COS-7 cells (African Green monkey kidney SV40-transformed cells) that had been transfected with one of the three α1-AR subtypes (Genbank accession number for the α1a subtype: AF013261; Genbank accession number for the α1b subtype: NM000679; Genbank accession number for the α1d subtype: NM000678) using the following method: COS cells from ten 100 mm tissue culture plates were scraped into a 5 mL volume of TE (a mixture of 50 mM Tris-HCl, 5 mM EDTA, pH 7.4). […] The disrupted cells were centrifuged at 1000×g for 10 min at 4° C. Supernatants were centrifuged at 34,500×g for 20 min at 4° C. The membrane pellets were suspended in a 2 mL volume of TNE (a mixture of 50 mM Tris-HCl, 5 mM EDTA and 150 mM NaCl at pH 7.4). An aliquot of the membrane suspension was stored at −70° C. until use. The protein concentration was determined using the BioRad “DC” protein assay kit following membrane solubilization with Triton X-100.
(§2) Triplicate determinations of radio-ligand binding in the presence of increasing concentrations of testing compound were made. The reagents were added to 96-well polypropylene plate wells. […] The plate was incubated at rt for 1 hr. The contents of the wells were filtered through a glass filter (type C) (GF/C) membrane Unifilter plate (Packard Instruments) using the Packard Filtermate cell harvester. The filter plates were dried in a vacuum oven for 30 min at 40° C. 25 μL Microscint 20 liquid scintillation fluid (Packard Instuments) was added to each well. The radioactive content was analyzed in the TopCount microplate scintillation counter (Packard Instruments).

[2] = target: T2, α1a-AR (Homo sapiens, UniProt P35348); test: α1-Adrenergic receptor radio-ligand binding assay, α1a subtype
T2 construct: expressed in transfected cells; host or cells: COS-7 cells (membranes)
T2 sequence (P35348 1-455 isoform P35348-4): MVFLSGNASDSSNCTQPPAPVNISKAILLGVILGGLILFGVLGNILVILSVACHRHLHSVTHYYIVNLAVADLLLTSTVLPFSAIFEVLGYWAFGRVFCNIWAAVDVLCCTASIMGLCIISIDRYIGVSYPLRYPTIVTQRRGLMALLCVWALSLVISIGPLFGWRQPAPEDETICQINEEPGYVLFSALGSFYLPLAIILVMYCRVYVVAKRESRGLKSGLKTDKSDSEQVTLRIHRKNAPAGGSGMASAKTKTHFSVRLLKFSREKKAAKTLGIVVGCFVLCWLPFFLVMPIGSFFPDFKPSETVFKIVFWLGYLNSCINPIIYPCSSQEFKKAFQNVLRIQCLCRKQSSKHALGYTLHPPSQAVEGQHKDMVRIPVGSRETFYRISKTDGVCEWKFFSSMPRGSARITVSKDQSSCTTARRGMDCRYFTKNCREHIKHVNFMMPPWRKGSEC
Method: as §1, §2

[3] = target: T3, α1b-AR (Homo sapiens, UniProt P35368); test: α1-Adrenergic receptor radio-ligand binding assay, α1b subtype
T3 construct: expressed in transfected cells; host or cells: COS-7 cells (membranes)
T3 sequence (P35368 1-520): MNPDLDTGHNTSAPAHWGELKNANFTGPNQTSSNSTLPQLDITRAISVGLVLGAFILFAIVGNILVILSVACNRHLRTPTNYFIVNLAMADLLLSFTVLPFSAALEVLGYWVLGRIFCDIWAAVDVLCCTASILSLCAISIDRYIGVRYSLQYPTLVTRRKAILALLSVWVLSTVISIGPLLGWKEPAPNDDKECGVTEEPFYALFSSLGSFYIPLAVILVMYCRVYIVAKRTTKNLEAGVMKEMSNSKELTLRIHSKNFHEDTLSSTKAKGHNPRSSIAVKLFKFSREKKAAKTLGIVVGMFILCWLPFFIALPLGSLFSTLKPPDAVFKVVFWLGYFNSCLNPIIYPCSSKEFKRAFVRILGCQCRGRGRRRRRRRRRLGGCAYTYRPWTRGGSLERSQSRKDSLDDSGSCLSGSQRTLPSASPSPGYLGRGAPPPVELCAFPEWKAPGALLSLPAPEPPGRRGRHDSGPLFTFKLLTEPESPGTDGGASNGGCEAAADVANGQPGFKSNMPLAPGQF
Method: as §1, §2

[4] = 125I-HEAT, membranes of COS-7 cells transfected with α1d subtype, rt 1 hr, read-out: Receptor Binding, Ki α1d-AR
[5] = 125I-HEAT, membranes of COS-7 cells transfected with α1a subtype, rt 1 hr, read-out: Receptor Binding, Ki α1a-AR
[6] = 125I-HEAT, membranes of COS-7 cells transfected with α1b subtype, rt 1 hr, read-out: Receptor Binding, Ki α1b-AR
[7] = read-out: Receptor Binding, Ki α1a-AR

| SMILES | pKi [1, 4] | pKi [2, 5] | pKi [3, 6] | pKi [1] | pKi [2] | pKi [2, 7] | pKi [3] |
| --- | --- | --- | --- | --- | --- | --- | --- |
| COc1ccc(S(=O)(=O)N[C@H]2CC[C@H](N3CCC(c4ccccc4OC(C)C)CC3)CC2)cc1OC [Cpd 2, N-trans-{4-[4-(2-isopropoxy-phenyl)-piperidin-1-yl]-cyclohexyl}-3,4-dimethoxy-benzenesulfonamide] | 7.40 | 7.56 | 6.83 | – | – | – | – |
| COc1ccc(S(=O)(=O)N[C@H]2CC[C@H](N3CCC(c4ccc(F)cc4OC(C)C)CC3)CC2)cc1OC [Cpd 32, N-trans-{4-[4-(4-fluoro-2-isopropoxy-phenyl)-piperidin-1-yl]-cyclohexyl}-3,4-dimethoxy-benzenesulfonamide] | 7.22 | 7.64 | 6.19 | – | – | – | – |
| COc1ccc(S(=O)(=O)N[C@H]2CC[C@@H](N3CCC(c4ccccc4OC(C)C)CC3)CC2)cc1OC [Cpd 1, N-cis-{4-[4-(2-isopropoxy-phenyl)-piperidin-1-yl]-cyclohexyl}-3,4-dimethoxy-benzenesulfonamide] | – | – | 6.84 | 8.74 | 8.92 | – | – |
| COc1ccc(S(=O)(=O)N[C@H]2CC[C@@H](N3CCC(c4ccc(F)cc4OC(C)C)CC3)CC2)cc1OC [Cpd 31, N-cis-{4-[4-(4-fluoro-2-isopropoxy-phenyl)-piperidin-1-yl]-cyclohexyl}-3,4-dimethoxy-benzenesulfonamide] | – | 7.80 | 6.16 | 7.91 | – | – | – |
| COc1ccc(S(=O)(=O)N[C@H]2CC[C@H](N3CCC(c4cc(F)ccc4OC(C)C)CC3)CC2)cc1OC [Cpd 34, N-trans-{4-[4-(5-fluoro-2-isopropoxy-phenyl)-piperidin-1-yl]-cyclohexyl}-3,4-dimethoxy-benzenesulfonamide] | 7.28 | – | 5.83 | – | – | 7.37 | – |
| COc1ccc(Cl)cc1S(=O)(=O)N[C@H]1CC[C@H](N2CCC(c3ccccc3OC3CC3)CC2)CC1 [Cpd 10, 5-chloro-N-trans-{4-[4-(2-cyclopropoxy-phenyl)-piperidin-1-yl]-cyclohexyl}-2-methoxy-benzenesulfonamide] | 7.33 | 8.35 | 6.52 | – | – | – | – |
| COc1ccc(Cl)cc1S(=O)(=O)N[C@H]1CC[C@@H](N2CCC(c3ccccc3OC3CC3)CC2)CC1 [Cpd 9, 5-chloro-N-cis-{4-[4-(2-cyclopropoxy-phenyl)-piperidin-1-yl]-cyclohexyl}-2-methoxy-benzenesulfonamide] | 8.59 | 8.89 | 7.09 | – | – | – | – |
| O=S(=O)(N[C@H]1CC[C@H](N2CCC(c3ccccc3OC3CC3)CC2)CC1)c1cc(Cl)ccc1F [Cpd 12, 5-chloro-N-trans-{4-[4-(2-cyclopropoxy-phenyl)-piperidin-1-yl]-cyclohexyl}-2-fluoro-benzenesulfonamide] | 7.49 | 8.42 | 6.47 | – | – | – | – |
| O=S(=O)(N[C@H]1CC[C@@H](N2CCC(c3ccccc3OC3CC3)CC2)CC1)c1ccc2c(c1)OCO2 [Cpd 21, benzo[1,3]dioxole-5-sulfonic acid cis-{4-[4-(2-cyclopropoxy-phenyl)-piperidin-1-yl]-cyclohexyl}-amide] | – | – | – | 7.89 | 7.81 | – | 6.56 |
| COc1ccc(S(=O)(=O)N[C@H]2CC[C@@H](N3CCC(c4ccccc4OCC(F)(F)F)CC3)CC2)cc1OC [Cpd 5, 3,4-dimethoxy-N-cis-(4-{4-[2-(2,2,2-trifluoro-ethoxy)-phenyl]-piperidin-1-yl}-cyclohexyl)-benzenesulfonamide] | – | – | – | 8.14 | 8.52 | – | 6.33 |
| COc1ccc(S(=O)(=O)N[C@H]2CC[C@H](N3CCC(c4ccccc4OCC(F)(F)F)CC3)CC2)cc1OC [Cpd 6, 3,4-dimethoxy-N-trans-(4-{4-[2-(2,2,2-trifluoro-ethoxy)-phenyl]-piperidin-1-yl}-cyclohexyl)-benzenesulfonamide] | – | – | – | 7.05 | 8.85 | – | 5.86 |
| COc1ccc(S(=O)(=O)N[C@H]2CC[C@@H](N3CCC(c4ccccc4OC4CC4)CC3)CC2)cc1OC [Cpd 7, N-cis-{4-[4-(2-cyclopropoxy-phenyl)-piperidin-1-yl]-cyclohexyl}-3,4-dimethoxy-benzenesulfonamide] | 8.70 | 9.04 | 6.85 | – | – | – | – |
| O=S(=O)(N[C@H]1CC[C@H](N2CCC(c3ccccc3OC3CC3)CC2)CC1)c1ccc2c(c1)OCO2 [Cpd 22, benzo[1,3]dioxole-5-sulfonic acid trans-{4-[4-(2-cyclopropoxy-phenyl)-piperidin-1-yl]-cyclohexyl}-amide] | – | – | – | 7.24 | 7.85 | – | 6.47 |
| COc1ccc(S(=O)(=O)N[C@H]2CC[C@H](N3CCC(c4ccccc4OC4CC4)CC3)CC2)cc1OC [Cpd 8, N-trans-{4-[4-(2-cyclopropoxy-phenyl)-piperidin-1-yl]-cyclohexyl}-3,4-dimethoxy-benzenesulfonamide] | – | – | 6.88 | 7.47 | 7.97 | – | – |
| O=S(=O)(N[C@H]1CC[C@H](N2CCC(c3ccccc3OC3CC3)CC2)CC1)c1ccc(Cl)cc1Cl [Cpd 16, 2,4-dichloro-N-trans-{4-[4-(2-cyclopropoxy-phenyl)-piperidin-1-yl]-cyclohexyl}-benzenesulfonamide] | 8.62 | 7.52 | 6.39 | – | – | – | – |
| COc1ccc(S(=O)(=O)N[C@H]2CC[C@@H](N3CCC(c4cc(F)ccc4OC(C)C)CC3)CC2)cc1OC [Cpd 33, N-cis-{4-[4-(5-fluoro-2-isopropoxy-phenyl)-piperidin-1-yl]-cyclohexyl}-3,4-dimethoxy-benzenesulfonamide] | 8.80 | – | 6.52 | – | – | 8.48 | – |
| O=S(=O)(N[C@H]1CC[C@@H](N2CCC(c3ccccc3OC3CC3)CC2)CC1)c1cc(Cl)ccc1F [Cpd 11, 5-chloro-N-cis-{4-[4-(2-cyclopropoxy-phenyl)-piperidin-1-yl]-cyclohexyl}-2-fluoro-benzenesulfonamide] | 8.68 | 8.74 | 6.97 | – | – | – | – |
| O=S(=O)(N[C@H]1CC[C@@H](N2CCC(c3ccccc3OC3CC3)CC2)CC1)c1ccc(Cl)cc1Cl [Cpd 15, 2,4-dichloro-N-cis-{4-[4-(2-cyclopropoxy-phenyl)-piperidin-1-yl]-cyclohexyl}-benzenesulfonamide] | 8.21 | 7.10 | 6.08 | – | – | – | – |
